The source of these data is article PMC8513058, “Synthesis and Evaluation of Novel 1,2,6-Thiadiazinone Kinase Inhibitors as Potent Inhibitors of Solid Tumors” (Molecules, 2021).

pIC50: −log10 of the molar value. Like-named read-outs stand apart in the source and are kept apart here.

Details of data set [1]: method as in PMID 29783765. Particulars: previously assessed; cited from earlier work.
The test system of data set [2] is kinases in SUM159 cell lysates. The data set is described as follows: MIBS kinome profiling (MIB-MS competitive displacement). Type of data set: binding. Particulars: 1 μM compound vs DMSO, SUM159 lysate; for kinome profile: 350-400 kinases detected. The procedure:
We then assessed the kinome profile of thiadiazinones 16, 17, and 26 all at 1 μM using a multiplexed kinase inhibitor bead set and quantitative mass spectrometry for detection of kinase peptides (MIB-MS). The MIB-MS proteomics was able to detect between 350 and 400 kinases in the cell lysates and competitive displacement of specific kinases from the beads was used to determine the kinome profile of the thiadiazinone kinase inhibitors.
Previously described. Briefly, multiplexed inhibitor beads (MIBS) affinity chromatography/MS analysis: SUM159 cells were cultured in a 50:50 mixture of DMEM and Nutrient Mixture F-12 medium (Gibco) supplemented with 5% fetal bovine serum, 1% anti/anti, […] insulin, and […] hydrocortisone. Cells were maintained at 37 °C in a humidified 5% CO2 atmosphere. SUM159 cells were grown to 80% confluency, washed twice with PBS, and harvested by scraping cells in lysis buffer [50 mM HEPES, pH 7.5, 150 mM NaCl, 0.5% Triton X-100, 1 mM EDTA, 1 mM EGTA, 10 mM NaF, 2.5 mM Na3VO4, complete protease inhibitor cocktail (Roche, Basel, Switzerland), phosphatase inhibitor cocktail 2, and 3 (Sigma, St. Louis, MO, USA)]. Lysates were sonicated then clarified by centrifugation at 14000 V g for 15 min at 4 °C. Lysate was then filtered through a […] syringe filter and frozen at −80 °C until use. Protein concentration was quantified using a Bradford assay the day of the experiment. DMSO or the indicated concentration of 16, 17, and 26 were added to lysate containing 4 mg of total protein. Lysates were vortexed briefly then incubated for 30 min on ice. Kinases were affinity purified as previously described. Briefly, lysates were diluted to 1.33 mg mL^−1 with lysis buffer then NaCl concentration brought to 1 M.
Diluted lysates were passed over a mixture of […] of settled beads of each of the following inhibitors conjugated to ECH Sepharose beads: Purvalanol B, PP58, VI-16832, UNC21474A, UNC8088A, and […] of settled beads conjugated to CTx-0294885 and VI-16832 [69]. The kinase inhibitor–bead conjugates were previously equilibrated in high-salt buffer (50 mM HEPES pH 7.5, 1M NaCl, 0.5% Triton X-100, 1 mM EDTA, and 1 mM EGTA). MIBs columns were sequentially washed with high-salt buffer, low-salt buffer (50 mm HEPES pH 7.5, 150 mM NaCl, 0.5% Triton X-100, 1 mM EDTA, and 1 mM EGTA), and SDS buffer (50 mm HEPES pH 7.5, 150 mm NaCl, 0.5% Triton X-100, 1 mm EDTA, 1 mm EGTA, and 0.1% SDS). Proteins were eluted by boiling samples in elution buffer (100 mM Tris·HCl pH 6.8, 0.5% SDS, and 1% β-mercaptoethanol) for 15 min twice. Dithiothreitol (DTT) was added to a final concentration of 5 mm and samples were incubated at 60 °C for 25 min. Samples were then cooled to room temperature on ice and alkylated by adding iodoacetamide to a final concentration of 20 mm for 30 min in the dark at room temperature. Samples were then concentrated in 10K Amicon Ultra centrifugal concentrators (Millipore, Burlington, MA, USA) followed by methanol and chloroform precipitation of proteins. The final protein pellets were re-suspended in 50 mM HEPES pH 8.0 and incubated with trypsin at 37 °C overnight. Residual detergent was removed by three sequential ethyl acetate extractions then desalted using Pierce C18 spin columns (Thermo Scientific, Waltham, MA, USA) according to the manufacturer’s protocol.

Data set [3] is described as follows: Chemical stability of thiadiazinones under aqueous, nucleophile, oxidizing and reducing conditions. In kind it is physicochemical. Particulars: tested similarly to 3,5-bis(phenylamino)-4H-1,2,6-thiadiazin-4-one: neutral, acidic, slightly basic aqueous, amine or thiol nucleophiles. From the text: It is important to note that the stability of dianilinothiadiazinones in biological systems has previously been assessed.

The subject of data set [4] is 5637 cells. Nature of the data set: Cancer cell line viability screen (alamarBlue), 5637. Particulars: for pIC50: 72 h, read-out: IC50 5637.
Description: (§1) This included pancreatic, bladder, prostate, breast, chordoma, and lung cancer cell lines while a skin fibroblast cell line was used as a toxicity control [33, 34, 35, 36].
(§2) DU145 and MCF-7 cells were cultured in MEM medium supplemented with 10% FBS and 1% penicillin/streptomycin. […] Cells were seeded in 384-well plates and were treated with test compound in quadruplicate 24 h after plating. Cell viability was assessed at 72 h using alamarBlue (ThermoFisher, Waltham, MA, USA). […] IC50 values were determined by nonlinear regression using GraphPad PrismTM software (GraphPad Software Inc., San Diego, CA, US).
For data set [5], the system named is MCF-7 cells. Nature of the data set: Cancer cell line viability screen (alamarBlue), MCF7. Particulars: Homo sapiens, MCF7, 72 h, read-out: IC50 MCF7.
Description: as §1, §2
Another data set relates to U-CH1 cells. The data set is described as follows: Cancer cell line viability screen (alamarBlue), UCH1. Particulars: UCH1, 72 h, read-out: IC50 UCH1.
The test system of another data set is U-CH2 cells. The data set is described as follows: Cancer cell line viability screen (alamarBlue), UCH2. Particulars: UCH2, 72 h, read-out: IC50 UCH2.
Data set [6] concerns A-431 cells. Nature of the data set: Cancer cell line viability screen (alamarBlue), A431. Particulars: Homo sapiens, A-431, 72 h, read-out: IC50 A431.
Description: as §1
(§3) Cells were seeded in 384-well plates and were treated with test compound in quadruplicate 24 h after plating. Cell viability was assessed at 72 h using alamarBlue (ThermoFisher, Waltham, MA, USA). […] IC50 values were determined by nonlinear regression using GraphPad PrismTM software (GraphPad Software Inc., San Diego, CA, US).
The test system of data set [7] is DU145 cells. The data set is described as follows: Cancer cell line viability screen (alamarBlue), DU145. Particulars: Homo sapiens, DU-145, 72 h, read-out: IC50 DU145.
Description: as §1, §2
Data set [8] concerns PANC-1 cells. The data set is described as follows: Cancer cell line viability screen (alamarBlue), PANC1. Particulars: Homo sapiens, PANC-1, 72 h, read-out: IC50 PANC1.
Description: as §1, §2
Data set [9] has as its system WS-1 cell line. Nature of the data set: Toxicity control viability screen (alamarBlue), WS-1 skin fibroblasts. Particulars: for pIC50: WS1, 72 h, read-out: IC50 WS-1.
Description: as §1, §2
In data set [10] the test system is DU145 cells. The arrangement: method as in PMID 28373427. Particulars: positive control; cited from earlier work.
The test system of data set [11] is MCF-7 cells. Particulars: read-out: IC50 MCF7, positive control; cited from earlier work.
For data set [12], the system named is A-431 cells. Particulars: read-out: IC50 A431, positive control; cited from earlier work.
Data set [13] has as its system WS-1 cell line. Particulars: read-out: IC50 WS-1, positive control; cited from earlier work.
The subject of data set [14] is PANC-1 cells. The arrangement: method as in PMID 22487525. Particulars: positive control; read-out: IC50 PANC1, positive control; cited from earlier work.
For data set [15], the system named is 5637 cells. Details: method as in PMID 23887605. Particulars: positive control; cited from earlier work.

Description for U-CH1 cells: as §1, §3
Description for U-CH2 cells: as §1, §3

As to `O=c1c(Nc2ccccc2)nsnc1Nc1ccccc1` [3,5-Bis(phenylamino)-4H-1,2,6-thiadiazin-4-one], the stability entry in data set [1] is “stable to neutral, acidic, or slightly basic aqueous conditions, the presence of amine or thiol nucleophiles, and oxidizing and reducing conditions”.

Molecule `O=c1c(Nc2cccc(O)c2)nsnc1-c1ccnc2[nH]ccc12` [Compound 16, 3-[(3-Hydroxyphenyl)amino]-5-(1H-pyrrolo[2,3-b]pyridin-4-yl)-4H-1,2,6-thiadiazin-4-one] displayed a melting point of 326 to 327 °C. In [2], the “kinases competitively displaced from the beads (hits)” value (from here on “kinases competitively displaced”) is “weak interactions on MAP4K5, MAP4K3, PRKCD, and PKN1 just below the threshold”; the kinome profile entry is listed as “narrow spectrum kinome profile”. Further, in data set [3], the stability result is “the same results”. In the data set on 5637 cells [4] (16 relative to methoxy analogue 15), the “increase in potency on the bladder cancer cell line” value stood at 10 fold. The pIC50 in the data set with 5637 cells [4] was 5.80. Further, in the data set on MCF-7 cells [5], the negative-log IC50 (pIC50) is 4.74. In addition, the pIC50 in the data set with U-CH1 cells is 4.34. Also, the pIC50 in the data set on U-CH2 cells was less than 4.00. Further, in the data set on A-431 cells [6], the pIC50 is less than 4.00. For the same molecule, in the data set on DU145 cells [7], the pIC50 was 4.39. The pIC50 with PANC-1 cells [8] is 4.48. For the same molecule, the pIC50 in the data set on WS-1 cell line [9] is less than 4.00.

For the molecule `Cc1ccc(Nc2nsnc(-c3ccnc4[nH]ccc34)c2=O)cc1O` [Compound 17, 3-[(3-Hydroxy-4-methylphenyl)amino]-5-(1H-pyrrolo[2,3-b]pyridin-4-yl)-4H-1,2,6-thiadiazin-4-one], the melting point lay in the range of 292 to 293 °C. Besides, in data set [2], the “kinases competitively displaced” value is “AKT2, MAP2K4, MAP2K1, and STK35 being just below the threshold”; the kinome profile entry was “narrow spectrum kinome profile”. For the same molecule, in the data set on 5637 cells [4], the pIC50 was 5.68. Also, in the data set on MCF-7 cells [5], the pIC50 was 4.85. For the same molecule, in the data set with U-CH1 cells, the pIC50 was less than 4.00. In addition, the pIC50 in the data set on U-CH2 cells was less than 4.00. The pIC50 in the data set with A-431 cells [6] is less than 4.00. In addition, in the data set on DU145 cells [7], the pIC50 is 4.64. In addition, the pIC50 in the data set on PANC-1 cells [8] is less than 4.00. The pIC50 in the data set on WS-1 cell line [9] was less than 4.00.

Molecule `O=c1c(Nc2ccc3[nH]ncc3c2)nsnc1-c1cccc(O)c1` [Compound 23, 5-(3-Hydroxyphenyl)-3-[(1H-indazol-5-yl)amino]-4H-1,2,6-thiadiazin-4-one] had a melting point of 282 to 283 °C. In the data set on 5637 cells [4], the pIC50 was less than 4.00. Besides, in the data set with MCF-7 cells [5], the pIC50 was 4.04. Besides, in the data set on U-CH1 cells, the pIC50 was 4.15. Further, the negative-log IC50 (pIC50) in the data set with U-CH2 cells is less than 4.00. For the same molecule, the pIC50 with A-431 cells [6] was less than 4.00. Besides, the pIC50 with DU145 cells [7] was 4.08. For the same molecule, the pIC50 in the data set with PANC-1 cells [8] is less than 4.00. In the data set with WS-1 cell line [9], the negative-log IC50 (pIC50) is less than 4.00.

`Cc1ccc(O)cc1-c1nsnc(Nc2ccc3[nH]ncc3c2)c1=O` [Compound 24, 5-(5-Hydroxy-2-methylphenyl)-3-[(1H-indazol-5-yl)amino]-4H-1,2,6-thiadiazin-4-one] had a melting point of 268 to 269 °C. Further, in the data set with 5637 cells [4], the pIC50 is less than 4.00. Besides, the negative logarithm of the IC50 (pIC50) in the data set with MCF-7 cells [5] was 4.89. Moreover, in the data set with U-CH1 cells, the pIC50 was 4.17. Moreover, the negative logarithm of the IC50 (pIC50) with U-CH2 cells is less than 4.00. In addition, the pIC50 in the data set on A-431 cells [6] was less than 4.00. In the data set with DU145 cells [7], the pIC50 is 4.82. The pIC50 with PANC-1 cells [8] was 4.59. For the same molecule, the pIC50 in the data set with WS-1 cell line [9] is less than 4.00. The “IC50 WS-1” value with WS-1 cell line [9] (skin fibroblast cell line, toxicity control, viability at 72 h, alamarBlue, average of 4 independent experiments) is “no toxicity”.

In turn, `COc1cccc(-c2nsnc(Nc3ccc4[nH]ncc4c3)c2=O)c1` [Compound 25, 3-[(1H-Indazol-5-yl)amino]-5-(3-methoxyphenyl)-4H-1,2,6-thiadiazin-4-one] came in with a melting point of 220 to 221 °C. Besides, the pIC50 in the data set on 5637 cells [4] was 4.89. In addition, the pIC50 in the data set with MCF-7 cells [5] is 4.42. The pIC50 with U-CH1 cells is 4.28. Also, in the data set on U-CH2 cells, the pIC50 was 4.00. In addition, the pIC50 in the data set with A-431 cells [6] is less than 4.00. Also, the pIC50 in the data set with DU145 cells [7] is less than 4.00. Moreover, the pIC50 in the data set with PANC-1 cells [8] was less than 4.00. Moreover, the pIC50 with WS-1 cell line [9] is 4.15.

`O=c1c(Nc2ccc3[nH]ncc3c2)nsnc1-c1ccnc(F)c1` [Compound 26, 5-(2-Fluoropyridin-4-yl)-3-[(1H-indazol-5-yl)amino]-4H-1,2,6-thiadiazin-4-one]: the melting point is 280 °C (dec.). Moreover, in data set [2], the “kinases competitively displaced” value was “showing affinity for ACVR1B, ACVR2A, and STK35”; the kinome profile result was “narrow spectrum kinome profile but was a weak inhibitor”. Besides, the pIC50 in the data set with 5637 cells [4] was 5.08. Further, the pIC50 with MCF-7 cells [5] was 4.30. The negative logarithm of the IC50 (pIC50) in the data set on U-CH1 cells was 4.08. Further, in the data set with U-CH2 cells, the pIC50 was less than 4.00. Also, the pIC50 in the data set on A-431 cells [6] is less than 4.00. Also, the pIC50 with DU145 cells [7] was 5.24. In addition, the pIC50 in the data set on PANC-1 cells [8] is less than 4.00. In the data set with WS-1 cell line [9], the pIC50 is less than 4.00.

For `CC(=O)O[C@@]12CO[C@@H]1C[C@H](O)[C@@]1(C)C(=O)[C@H](O)C3=C(C)[C@@H](OC(=O)[C@H](O)[C@@H](NC(=O)OC(C)(C)C)c4ccccc4)C[C@@](O)([C@@H](OC(=O)c4ccccc4)[C@H]21)C3(C)C` [docetaxel], the pIC50 with DU145 cells [10] is 8.30.

With `CS(=O)(=O)CCNCc1ccc(-c2ccc3ncnc(Nc4ccc(OCc5cccc(F)c5)c(Cl)c4)c3c2)o1` [lapatinib], the pIC50 in the data set on MCF-7 cells [11] was 5.20; in the data set on A-431 cells [12], 7.00; in the data set with WS-1 cell line [13], 4.89.

For `Cc1[nH]c2ccccc2c1CCNCc1ccc(/C=C/C(=O)NO)cc1` [panobinostat], the pIC50 in the data set with PANC-1 cells [14] was 6.00.

As for `Cc1ccc(Nc2nccc(N(C)c3ccc4c(C)n(C)nc4c3)n2)cc1S(N)(=O)=O` [pazopanib], the pIC50 in the data set on 5637 cells [15] was 4.82.
